Usually EC50 stands for the concentration giving half of the maximal effect. Usually CC50 stands for the concentration at which the toxic effect on the cells reaches its halfway point. Lower therefore signals harm at low concentration. Usually IC50 stands for the concentration that inhibits the measured activity by half.

Molecules are shown by their SMILES.

Data set [1] concerns influenza A/H1N1 (A/Ned/378/05). In words: Antiviral CPE reduction assay, influenza A/H1N1 in MDCK cells. Type of data set: cell-based, influenza A virus. As to conditions: MDCK cells; CPE reduction, MTS; mean ± SD of two or three independent experiments; read-out: Antiviral Activity (EC50) Influenza H1N1.
A further data set relates to HCoV-OC43. Kind of data set: Antiviral CPE reduction assay, HCoV-OC43 in HEL299 cells. Type of data set: cell-based, human coronavirus OC43. As to conditions: MTS, mean ± SD of two or three independent experiments.
Data set [2] has as its system eight diverse human cancer cell lines.
For data set [3], the system named is Capan-1 (pancreatic adenocarcinoma). In words: MTS proliferation assay, Capan-1. As to conditions: read-out: Anti-Proliferative Activity (IC50) Capan-1; 72 h, MTS; mean ± SD of two independent experiments. In general terms: Formazan colour is commonly taken as a measure of viable cells.
Data set [4] concerns HL-60 (acute myeloid leukemia). In words: MTS proliferation assay, HL-60. As to conditions: read-out: Anti-Proliferative Activity (IC50) HL-60; 72 h, MTS; mean ± SD of two independent experiments.
The subject of data set [5] is NCI-H460 (lung carcinoma). In words: MTS proliferation assay, NCI-H460. As to conditions: read-out: Anti-Proliferative Activity (IC50) NCI-H460; 72 h, MTS; mean ± SD of two independent experiments.
Data set [6] deals with Z-138 (non-Hodgkin lymphoma). In words: MTS proliferation assay, Z-138. As to conditions: read-out: Anti-Proliferative Activity (IC50) Z-138; 72 h, MTS; mean ± SD of two independent experiments.
A further data set relates to LN-229 (glioblastoma). Kind of data set: MTS proliferation assay, LN-229. As to conditions: read-out: Anti-Proliferative Activity (IC50) LN-229; 72 h, MTS; mean ± SD of two independent experiments.
Data set [7] relates to K-562 (chronic myeloid leukemia). In words: MTS proliferation assay, K-562. As to conditions: read-out: Anti-Proliferative Activity (IC50) K-562; 72 h, MTS; mean ± SD of two independent experiments.
A further data set has as its system Zika virus (ZikV mr766). In words: Antiviral CPE reduction assay, Zika virus mr766 in VeroE6 cells. The data set is classed as cell-based. As to conditions: MTS, mean ± SD, no unit printed on the supplement page (Table 2 of the same screen is in µM).
The test system of data set [8] is respiratory syncytial virus A (RSV A Long). In words: Antiviral CPE reduction assay, RSV A Long in Hep2 cells. As to conditions: Hep2 cells; CPE reduction, MTS; mean ± SD of two or three independent experiments; read-out: Antiviral Activity (EC50) RSV A Long. Type of data set: cell-based.
Data set [9] relates to influenza A/H3N2 (A/HK/7/87). Kind of data set: Antiviral CPE reduction assay, influenza A/H3N2 in MDCK cells. As to conditions: MDCK cells; CPE reduction, MTS; mean ± SD of two or three independent experiments; read-out: Antiviral Activity (EC50) Influenza H3N2. The data set is classed as cell-based, influenza A virus.
In another data set the test system is HCoV-NL63. In words: Antiviral CPE reduction assay, HCoV-NL63 in Hep3B cells. Type of data set: cell-based, human coronavirus NL63. As to conditions: MTS, mean ± SD of two or three independent experiments.
Data set [10] relates to herpes simplex virus-1 (HSV-1 KOS). Kind of data set: Antiviral CPE reduction assay, HSV-1 KOS in HEL299 cells. Type of data set: cell-based. As to conditions: MTS, mean ± SD, no unit printed on the supplement page (Table 2 of the same screen is in µM).
In data set [11] the test system is yellow fever virus (YFV 17D). Kind of data set: microbe, parasite or virus in culture. Type of data set: cell-based. As to conditions: VeroE6 cells; CPE reduction, MTS; mean ± SD; no unit printed on the supplement page (Table 2 of the same screen is in µM); read-out: Antiviral activity (EC50) YFV 17D.
Data set [12] has as its system DND-41 (acute lymphoblastic leukemia). Kind of data set: MTS proliferation assay, DND-41. As to conditions: read-out: Anti-Proliferative Activity (IC50) DND-41; 72 h, MTS; mean ± SD of two independent experiments.
The test system of data set [13] is influenza B (B/Ned/537/05). Kind of data set: Antiviral CPE reduction assay, influenza B in MDCK cells. As to conditions: MDCK cells; CPE reduction, MTS; mean ± SD of two or three independent experiments; read-out: Antiviral Activity (EC50) Influenza B. Type of data set: cell-based, influenza B virus.
For data set [14], the system named is HCT-116 (colorectal carcinoma). In words: MTS proliferation assay, HCT-116. As to conditions: read-out: Anti-Proliferative Activity (IC50) HCT-116; 72 h, MTS; mean ± SD of two independent experiments.
The next data set relates to HCoV-229E. Kind of data set: Antiviral CPE reduction assay, HCoV-229E in HEL299 cells. As to conditions: MTS, mean ± SD of two or three independent experiments. Type of data set: cell-based, human coronavirus 229E.

Consider `C=CC(=O)Nc1cccc(Nc2nc(Nc3ccc(NC4CN(CCF)C4)cc3OC)ncc2C(F)(F)F)c1` [CNX-2006, reference compound], for which the EC50 in data set [1] was greater than 100 µM; with HCoV-OC43, 2.2 ± 0.8 µM; with Zika virus (ZikV mr766) it was greater than 100 µM; in data set [8], greater than 100 µM; in data set [9] it was greater than 100 µM; in the data set on HCoV-NL63, greater than 100 µM. Further, the EC50 in data set [10] was greater than 100 µM; in [11], greater than 100 µM; in data set [13], greater than 100 µM; with HCoV-229E it was 1.8 ± 0.2 µM. For the same molecule, the CC50 in data set [2] is less than 10 µM; in the data set with MDCK cells, 1.7 ± 0.4 µM; in the data set with VeroE6 cells, 9.2 ± 1.1 µM; with Hep2 cells it was 11.7 ± 0.8 µM; with HEL299 cells, 11.1 ± 1 µM; in the data set on Hep3B cells, 4.3 ± 1.8 µM. The IC50 in data set [3] turned out to be 1.7 ± 0.01 µM; in data set [4], 3.8 ± 1.4 µM; in data set [5] it was 8.7 ± 1.9 µM; in data set [6], 2.6 ± 0.5 µM; with LN-229 (glioblastoma), 8.2 ± 1.2 µM; in data set [7] it was 11.5 ± 0.06 µM. Also, the IC50 in data set [12] was 4.5 ± 0.2 µM; in data set [14] it was 6.6 ± 0.7 µM.

The record behind these values is paper PMC11643962, “Exploring 4,7-Disubstituted Pyrimido[4,5-d]pyrimidines as Antiviral and Anticancer Agents” (Molecules, 2024).
